# Test system: patients with short bowel syndrome (SBS)
# Experiment: 72-hour nutrient balance studies in open-label pilot study of teduglutide
# Type: in vivo, human
# Conditions: for Energy Absorption (% of intake), Effect of Treatment (Treatment minus Baseline) mean ± SD / Energy Absorption, Effect of Treatment (Treatment minus Baseline) mean ± SD / Energy Fecal, Effect of Treatment (Treatment minus Baseline) mean ± SD / Urine Wet Weight, Effect of Treatment (Treatment minus Baseline) mean ± SD / Wet Weight Absorption (% of intake), Effect of Treatment (Treatment minus Baseline) mean ± SD / Wet Weight Absorption, Effect of Treatment (Treatment minus Baseline) mean ± SD / Wet Weight Fecal, Effect of Treatment (Treatment minus Baseline) mean ± SD: Days 18-21 vs baseline; for Energy Absorption (% of intake), Effect at Follow up (Follow up minus Baseline) mean ± SD / Energy Absorption, Effect at Follow up (Follow up minus Baseline) mean ± SD / Energy Fecal, Effect at Follow up (Follow up minus Baseline) mean ± SD / Urine Wet Weight, Effect at Follow up (Follow up minus Baseline) mean ± SD / Wet Weight Absorption (% of intake), Effect at Follow up (Follow up minus Baseline) mean ± SD / Wet Weight Absorption, Effect at Follow up (Follow up minus Baseline) mean ± SD / Wet Weight Fecal, Effect at Follow up (Follow up minus Baseline) mean ± SD: follow-up Days 39-42 vs baseline; for decrease in fecal wet weight compared to baseline: 21-day treatment, stated as decrease; for decrease in fecal energy excretion compared to baseline: stated as reduction
# Procedure: This was an open-label, pilot study to determine the safety and effect of teduglutide in patients with short bowel syndrome (SBS). The patient's history was reviewed and a physical examination performed to determine eligibility before inclusion in the study. Estimated residual small intestine and colon lengths were determined by reviewing operative reports and available radiographic studies. Eligible patients were admitted as inpatients to hospital wards or General Clinic Research Centers (GCRC) on three separate occasions, 18 days apart, for the last four days and three nights of the baseline period and at the end of the treatment and follow-up periods. Treatment consisted of recombinant teduglutide (supplied by NPS Allelix, Mississauga, ON, Canada) formulated as a lyophilized powder with L-histidine, mannitol, and monobasic and dibasic sodium phosphate (Lot 8502901). Water was added to reconstitute the drug for administration by subcutaneous (s.c.) injections in the abdomen or thigh. Ten SBS patients with jejunostomy received 0.03 mg/kg/d, 0.10 mg/kg/d or 0.15 mg/kg/d once daily for 21 days. Five SBS patients with ≥50% colon-in-continuity received teduglutide 0.10 mg/kg/d once daily for 21 days.
# The 72-hour nutrient balance studies were completed with each patient eating their usual diet, calculated from a seven-day food diary completed by the patient during the screening period. It was intended that patients eat the same quantity and quality of food and beverages during each admission. During the 72-hour balance periods, all oral intake (duplicate meals and beverages and declined food), fecal/stomal output, and urine were collected and weighed. All stool samples were refrigerated during the collection period. Stools and diets were separately homogenized and analyzed for energy content (by bomb calorimetry), nitrogen (by the macro-Kjeldahl's method), fat (by the gravimetric technique), and sodium and potassium (by atomic absorption).
# Using the SAS (Version 8.2; SAS Institute, Cary, N.C.) statistical program, a Student's paired t test was employed that compared treatment to baseline values, and follow-up to baseline values. No comparisons were made between patients on different doses or with different anatomy due to the limited number of patients in the study. Data are expressed as mean±SD. A value of p<0.05 was considered significant.
# [1] = Group 2 SBS end-jejunostomy, N=10, 0.03-0.15 mg/kg/d s.c. once daily 21 days
# [2] = Group 2 SBS end-jejunostomy, N=10
# [3] = Group 2 SBS end-jejunostomy, of N=10
# [4] = Group 3 SBS ≥50% colon-in-continuity, N=5, 0.10 mg/kg/d s.c. once daily 21 days
# [5] = Group 3 SBS ≥50% colon-in-continuity, N=5
# [6] = Group 3 SBS ≥50% colon-in-continuity, of N=5
# [7] = Group 4 SBS high dietary compliance, N=10, 21 days
# [8] = Group 4 SBS high dietary compliance, N=10
# [9] = Group 4 SBS high dietary compliance, of N=10
smiles,measurement,setting,value
"CC[C@H](C)[C@H](NC(=O)[C@H](Cc1ccccc1)NC(=O)[C@H](CC(=O)O)NC(=O)[C@H](CCCNC(=N)N)NC(=O)[C@H](C)NC(=O)[C@H](C)NC(=O)[C@H](CC(C)C)NC(=O)[C@H](CC(N)=O)NC(=O)[C@H](CC(=O)O)NC(=O)[C@H](CC(C)C)NC(=O)[C@@H](NC(=O)[C@@H](NC(=O)[C@H](CC(N)=O)NC(=O)[C@H](CCSC)NC(=O)[C@H](CCC(=O)O)NC(=O)[C@H](CC(=O)O)NC(=O)[C@H](CO)NC(=O)[C@H](Cc1ccccc1)NC(=O)[C@H](CO)NC(=O)CNC(=O)[C@H](CC(=O)O)NC(=O)CNC(=O)[C@@H](N)Cc1c[nH]cn1)[C@@H](C)O)[C@@H](C)CC)C(=O)N[C@@H](CC(N)=O)C(=O)N[C@@H](Cc1c[nH]c2ccccc12)C(=O)N[C@@H](CC(C)C)C(=O)N[C@H](C(=O)N[C@@H](CCC(N)=O)C(=O)N[C@H](C(=O)N[C@@H](CCCCN)C(=O)N[C@H](C(=O)N[C@H](C(=O)N[C@@H](CC(=O)O)C(=O)O)[C@@H](C)O)[C@@H](C)CC)[C@@H](C)O)[C@@H](C)CC [teduglutide, [Gly2]hGLP-2]","Energy Absorption (% of intake), Effect of Treatment (Treatment minus Baseline) mean ± SD",[1],5 ± 20 % of intake
same,"Energy Absorption, Effect of Treatment (Treatment minus Baseline) mean ± SD",[1],363 ± 2656 kJ/day
same,"Energy Fecal, Effect of Treatment (Treatment minus Baseline) mean ± SD",[1],-532 ± 1703 kJ/day
same,"Urine Wet Weight, Effect of Treatment (Treatment minus Baseline) mean ± SD",[1],680 ± 535 g/day
same,"Wet Weight Absorption (% of intake), Effect of Treatment (Treatment minus Baseline) mean ± SD",[1],20±18 % of intake
same,"Wet Weight Absorption, Effect of Treatment (Treatment minus Baseline) mean ± SD",[1],788 ± 551 g/day
same,"Wet Weight Fecal, Effect of Treatment (Treatment minus Baseline) mean ± SD",[1],-682 ± 911 g/day
same,"Energy Absorption (% of intake), Effect at Follow up (Follow up minus Baseline) mean ± SD",[2],−6 ± 12 % of intake
same,"Energy Absorption, Effect at Follow up (Follow up minus Baseline) mean ± SD",[2],-800 ± 2958 kJ/day
same,"Energy Fecal, Effect at Follow up (Follow up minus Baseline) mean ± SD",[2],320 ± 1200 kJ/day
same,"Urine Wet Weight, Effect at Follow up (Follow up minus Baseline) mean ± SD",[2],11 ± 287 g/day
same,"Wet Weight Absorption (% of intake), Effect at Follow up (Follow up minus Baseline) mean ± SD",[2],−9 ± 16 % of intake
same,"Wet Weight Absorption, Effect at Follow up (Follow up minus Baseline) mean ± SD",[2],-218 ± 577 g/day
same,"Wet Weight Fecal, Effect at Follow up (Follow up minus Baseline) mean ± SD",[2],278 ± 496 g/day
same,"Energy Absorption (% of intake), Patients With Beneficial Effect",[3],6
same,"Energy Absorption (kJ/day), Patients With Beneficial Effect",[3],6
same,"Energy Fecal, Patients With Beneficial Effect",[3],8
same,"Urine Wet Weight, Patients With Beneficial Effect",[3],8
same,"Wet Weight Absorption (% of intake), Patients With Beneficial Effect",[3],8
same,"Wet Weight Absorption (g/day), Patients With Beneficial Effect",[3],9
same,"Wet Weight Fecal, Patients With Beneficial Effect",[3],8
same,decrease in fecal wet weight compared to baseline,Group 2 SBS end-jejunostomy,682 ± 911 g/day
same,decrease in fecal energy excretion compared to baseline,"Group 2 SBS end-jejunostomy, p>0.05",532 ± 1703 kJ/day
same,decrease in fecal energy excretion compared to baseline,Group 3 SBS colon-in-continuity,1343 ± 916 kJ/day
same,"Energy Absorption (% of intake), Effect of Treatment (Treatment minus Baseline) mean ± SD",[4],10±7 % of intake
same,"Energy Absorption, Effect of Treatment (Treatment minus Baseline) mean ± SD",[4],1027 ± 798 kJ/day
same,"Energy Fecal, Effect of Treatment (Treatment minus Baseline) mean ± SD",[4],-1343 ± 916 kJ/day
same,"Urine Wet Weight, Effect of Treatment (Treatment minus Baseline) mean ± SD",[4],461 ± 200 g/day
same,"Wet Weight Absorption (% of intake), Effect of Treatment (Treatment minus Baseline) mean ± SD",[4],26±16 % of intake
same,"Wet Weight Absorption, Effect of Treatment (Treatment minus Baseline) mean ± SD",[4],751 ± 328 g/day
same,"Wet Weight Fecal, Effect of Treatment (Treatment minus Baseline) mean ± SD",[4],-822 ± 341 g/day
same,"Energy Absorption (% of intake), Effect at Follow up (Follow up minus Baseline) mean ± SD",[5],10 ± 17 % of intake
same,"Energy Absorption, Effect at Follow up (Follow up minus Baseline) mean ± SD",[5],907 ± 1146 kJ/day
same,"Energy Fecal, Effect at Follow up (Follow up minus Baseline) mean ± SD",[5],-997 ± 1713 kJ/day
same,"Urine Wet Weight, Effect at Follow up (Follow up minus Baseline) mean ± SD",[5],-90 ± 281 g/day
same,"Wet Weight Absorption (% of intake), Effect at Follow up (Follow up minus Baseline) mean ± SD",[5],17 ± 30 % of intake
same,"Wet Weight Absorption, Effect at Follow up (Follow up minus Baseline) mean ± SD",[5],352 ± 525 g/day
same,"Wet Weight Fecal, Effect at Follow up (Follow up minus Baseline) mean ± SD",[5],-240 ± 426 g/day
same,"Energy Absorption (% of intake), Patients With Beneficial Effect",[6],5
same,"Energy Absorption (kJ/day), Patients With Beneficial Effect",[6],5
same,"Energy Fecal, Patients With Beneficial Effect",[6],4
same,"Urine Wet Weight, Patients With Beneficial Effect",[6],5
same,"Wet Weight Absorption (% of intake), Patients With Beneficial Effect",[6],5
same,"Wet Weight Absorption (g/day), Patients With Beneficial Effect",[6],5
same,"Wet Weight Fecal, Patients With Beneficial Effect",[6],5
same,decrease in fecal wet weight compared to baseline,Group 3 SBS ≥50% colon-in-continuity,822 ± 341 g/day
same,"Energy Absorption (% of intake), Effect of Treatment (Treatment minus Baseline) mean ± SD",[7],8±11 % of intake
same,"Energy Absorption, Effect of Treatment (Treatment minus Baseline) mean ± SD",[7],963 ± 1290 kJ/day
same,"Energy Fecal, Effect of Treatment (Treatment minus Baseline) mean ± SD",[7],-1060 ± 1083 kJ/day
same,"Urine Wet Weight, Effect of Treatment (Treatment minus Baseline) mean ± SD",[7],725 ± 394 g/day
same,"Wet Weight Absorption (% of intake), Effect of Treatment (Treatment minus Baseline) mean ± SD",[7],23 ± 16 % of intake
same,"Wet Weight Absorption, Effect of Treatment (Treatment minus Baseline) mean ± SD",[7],746 ± 436 g/day
same,"Wet Weight Fecal, Effect of Treatment (Treatment minus Baseline) mean ± SD",[7],-769 ± 447 g/day
same,"Energy Absorption (% of intake), Effect at Follow up (Follow up minus Baseline) mean ± SD",[8],3 ± 16 % of intake
same,"Energy Absorption, Effect at Follow up (Follow up minus Baseline) mean ± SD",[8],452 ± 1211 kJ/day
same,"Energy Fecal, Effect at Follow up (Follow up minus Baseline) mean ± SD",[8],-98 ± 1674 kJ/day
same,"Urine Wet Weight, Effect at Follow up (Follow up minus Baseline) mean ± SD",[8],30 ± 285 g/day
same,"Wet Weight Absorption (% of intake), Effect at Follow up (Follow up minus Baseline) mean ± SD",[8],0 ± 27 % of intake
same,"Wet Weight Absorption, Effect at Follow up (Follow up minus Baseline) mean ± SD",[8],24 ± 576 g/day
same,"Wet Weight Fecal, Effect at Follow up (Follow up minus Baseline) mean ± SD",[8],93 ± 500 g/day
same,"Energy Absorption (% of intake), Patients With Beneficial Effect",[9],9
same,"Energy Absorption (kJ/day), Patients With Beneficial Effect",[9],9
same,"Energy Fecal, Patients With Beneficial Effect",[9],8
same,"Urine Wet Weight, Patients With Beneficial Effect",[9],10
same,"Wet Weight Absorption (% of intake), Patients With Beneficial Effect",[9],9
same,"Wet Weight Absorption (g/day), Patients With Beneficial Effect",[9],9
same,"Wet Weight Fecal, Patients With Beneficial Effect",[9],9
same,decrease in fecal energy excretion compared to baseline,Group 4 SBS high dietary compliance,1060 ± 1083 kJ/day
same,improved wet weight absorption,SBS patient population,0.75 L
same,effect on absolute energy absorption relative to native GLP-2,at the given doses and treatment periods,1.5 to 4 fold
same,reversal of changes at follow-up,follow-up after cessation of dosing,Most changes in intestinal absorption and histology related to teduglutide treatment had reversed at follow-up
same,effects on wet weight absorption relative to native GLP-2 pilot study,in vivo,almost two-fold
same,number of SBS patients in whom absolute wet weight absorption increased as a percent of intake,of 15 SBS patients,13
same,number of SBS patients with decreases in energy excretion,of 15 SBS patients,12
same,number of SBS patients with increased absolute wet weight absorption compared to baseline,of 15 SBS patients,15
same,number of SBS patients with increased urine weight,of 15 SBS patients,13

# Reference: patent US9999656B2, “Treatment of short bowel syndrome patients with colon-in-continuity” (Shire-NPS Pharmaceuticals, Inc., priority 2004, dated 2018)
